Measured values: PubChem BioAssay AID1224921 (Broad Institute, 2016)
The source made the active and inactive calls. How the calls were made is not given here.

Tested on: Clostridioides difficile clinical isolate growth, OD600, 24 h
Assay: C. difficile growth inhibition, confirmation, 4-point retest (AID 1224921)

SMILES	AC50
CCC(=O)Nc1ccc2c(c1)C(=O)N(C)C[C@@H](OC)[C@H](C)CN(C(=O)NC(C)C)[C@@H](C)CO2	> 60 µM (inactive)
CO[C@@H](CN(C)C(=O)C1CCOCC1)[C@H](C)CN(C(=O)Nc1ccc(C(F)(F)F)cc1)[C@@H](C)CO	3.45 µM
O=C(C[C@@H]1CC[C@@H]2[C@H](COC[C@H](O)CN2C(=O)Nc2ccc(Cl)c(Cl)c2)O1)NCc1ccc(Cl)cc1	0.915 µM
CO[C@@H]1CN(C)C(=O)c2cc(NC(=O)Nc3ccc(Cl)c(Cl)c3)ccc2OC[C@@H](C)NC[C@@H]1C	4.25 µM
COc1ccccc1-c1ccc2c(c1)O[C@H](CN(C)C(=O)c1ccccc1)[C@H](C)CN([C@H](C)CO)S2(=O)=O	> 60 µM (inactive)
C[C@@H]1CCCCO[C@@H](CN(C)CC2CCCCC2)[C@H](C)CN([C@H](C)CO)C(=O)c2cc(NC(=O)Nc3ccc(C(F)(F)F)cc3)ccc2O1	16.2 µM
C[C@H]1CN([C@@H](C)CO)S(=O)(=O)c2ccc(C#Cc3ccc(F)cc3)cc2O[C@@H]1CN(C)C	34.2 µM
CO[C@H]1CN(C)C(=O)c2cc(NC(=O)Nc3cc(Cl)cc(Cl)c3)ccc2OC[C@H](C)NC[C@H]1C	11.6 µM
CO[C@H](CN(C)Cc1cc(F)ccc1F)[C@@H](C)CN(C(=O)Nc1ccc(C(F)(F)F)cc1)[C@H](C)CO	6.43 µM
CCNC(=O)C[C@@H]1CC[C@@H]2[C@H](COC[C@H](O)CN2C(=O)Nc2ccc(Cl)c(Cl)c2)O1	4.07 µM
C[C@@H]1CN([C@@H](C)CO)C(=O)Cc2cc(N(C)C)ccc2O[C@H]1CN(C)Cc1ccc(Oc2ccccc2)cc1	19.1 µM
C[C@H]1CN([C@@H](C)CO)C(=O)c2cccc(NC(=O)Nc3ccccc3)c2O[C@H]1CN(C)C(=O)Nc1ccc(C(F)(F)F)cc1	28.2 µM
O=C(C[C@H]1CC[C@@H]2[C@H](COC[C@@H](O)CN2C(=O)Nc2ccc(Cl)c(Cl)c2)O1)NCc1ccc(F)cc1	2.15 µM
COc1cccc(C#Cc2ccc([C@H]3[C@@H](CO)N(C(=O)C4CCCCC4)[C@H]3C#N)cc2)c1	19 µM
Cc1cc(C(=O)Nc2cccc3c2O[C@@H](CN(C)Cc2ccc(-c4ccccc4)cc2)[C@H](C)CN([C@@H](C)CO)C3=O)n(C)n1	1.01 µM
CO[C@H]1CN(C)C(=O)c2cc(NC(=O)Nc3ccc(Cl)c(Cl)c3)ccc2OC[C@@H](C)NC[C@@H]1C	4.39 µM
O=C(C[C@H]1CC[C@@H]2[C@H](COC[C@@H](O)CN2S(=O)(=O)c2ccc(F)cc2)O1)NCC1CCCCC1	15.8 µM
COc1ccc(CN(C)C[C@H]2OCCCC[C@@H](C)Oc3ccc(NC(=O)Nc4cccc5ccccc45)cc3C(=O)N([C@@H](C)CO)C[C@@H]2C)cc1	27.4 µM
COc1ccc(C(=O)Nc2ccc3c(c2)OC[C@@H](C)N(C(C)=O)C[C@H](C)[C@@H](OC)CN(C)C3=O)cc1	> 60 µM (inactive)
CCCNC(=O)C[C@@H]1CC[C@@H]2[C@H](COC[C@H](O)CN2C(=O)Nc2ccc(Cl)c(Cl)c2)O1	3.54 µM
C[C@@H]1CN([C@@H](C)CO)C(=O)c2cc(NC(=O)Nc3cccc4ccccc34)ccc2O[C@@H](C)CCCCO[C@H]1CN(C)CC1CCCCC1	32.1 µM
CS(=O)(=O)N1[C@H](C#N)[C@@H](c2ccc(C#CC3CCCC3)cc2)[C@@H]1CO	> 70 µM (inactive)
CNC[C@@H]1OCCCC[C@@H](C)Oc2ccc(NC(=O)Nc3ccc(C(F)(F)F)cc3)cc2C(=O)N([C@@H](C)CO)C[C@@H]1C	17.5 µM
CC(=O)N[C@@H]1CC[C@@H](CCNC(=O)Nc2ccc(C(F)(F)F)cc2)O[C@H]1CO	12.7 µM

SMILES	AC50
O=C(C[C@H]1CC[C@@H]2[C@H](COC[C@H](O)CN2C(=O)Nc2ccc(Cl)c(Cl)c2)O1)NCc1ccc(F)cc1	1.91 µM
CCS(=O)(=O)N1[C@H](CO)[C@H](c2ccc(C#CCC3CCCC3)cc2)[C@@H]1C#N	19.8 µM
CO[C@@H]1CN(C)C(=O)c2cc(NC(=O)Nc3ccc(C(F)(F)F)cc3)ccc2OC[C@H](C)NC[C@H]1C	17.8 µM
C[C@@H]1CN([C@@H](C)CO)S(=O)(=O)c2ccc(/C=C/c3ccccc3)cc2O[C@H]1CN(C)Cc1ccc(C(=O)O)cc1	1.35 µM
COc1ccc(CN(C)C[C@@H]2OCCCC[C@H](C)Oc3ccc(NC(=O)Nc4cccc5ccccc45)cc3C(=O)N([C@H](C)CO)C[C@H]2C)cc1	22.6 µM
O=C(C[C@@H]1CC[C@@H]2[C@H](COC[C@@H](O)CN2C(=O)Nc2ccc(Cl)c(Cl)c2)O1)NCc1ccncc1	4.07 µM
CCNC(=O)C[C@@H]1CC[C@@H]2[C@H](COC[C@@H](O)CN2C(=O)Nc2ccc(C(F)(F)F)cc2)O1	13.6 µM
O=C(C[C@H]1CC[C@H]2[C@@H](COC[C@@H](O)CN2C(=O)Nc2ccc(Cl)c(Cl)c2)O1)NCc1ccc(Cl)c(Cl)c1	1.08 µM
C[C@H](CO)N1C[C@H](C)[C@H](CN(C)C(=O)Nc2ccc(F)cc2)Oc2c(NC(=O)Nc3ccc(C(F)(F)F)cc3)cccc2C1=O	33.7 µM
O=C(Nc1ccc(-c2ccccc2)cc1)[C@H]1[C@H](CO)[C@H]2Cn3c(cccc3=O)[C@H]2N1CC1CCCCC1	> 60 µM (inactive)
C[C@H]1CN([C@@H](C)CO)C(=O)c2cccc(NC(=O)Nc3ccc(C(F)(F)F)cc3)c2O[C@H]1CN(C)C(=O)Nc1ccc(F)cc1	23.4 µM
O=C(NCC[C@H]1CC[C@H](NC(=O)C2CC2)[C@H](CO)O1)Nc1ccc(C(F)(F)F)cc1	16 µM
C[C@@H]1CCCCO[C@@H](CN(C)C(=O)CCCN(C)C)[C@H](C)CN([C@H](C)CO)C(=O)c2cc(NC(=O)Nc3ccc(C(F)(F)F)cc3)ccc2O1	7.16 µM
CCCNC(=O)C[C@@H]1CC[C@H]2[C@@H](COC[C@H](O)CN2C(=O)Nc2ccc(Cl)c(Cl)c2)O1	5.98 µM
C[C@@H]1CN([C@@H](C)CO)C(=O)Cc2cc(NC(=O)Nc3ccc(C(F)(F)F)cc3)ccc2O[C@H]1CN(C)Cc1ccccc1	17.9 µM
C[C@@H]1CCCCO[C@@H](CN(C)Cc2ccc3c(c2)OCO3)[C@H](C)CN([C@@H](C)CO)C(=O)c2cc(NC(=O)Nc3ccc(C(F)(F)F)cc3)ccc2O1	> 60 µM (inactive)
C[C@@H]1CN([C@H](C)CO)C(=O)c2cc(NC(=O)Nc3ccc(C(F)(F)F)cc3)ccc2O[C@@H](C)CCCCO[C@H]1CN(C)Cc1ccccc1	6.56 µM
COc1ccc(CN(C)C[C@@H]2OCCCC[C@H](C)Oc3ccc(NC(=O)Nc4ccc(C(F)(F)F)cc4)cc3C(=O)N([C@H](C)CO)C[C@@H]2C)cc1	> 60 µM (inactive)
C[C@H](CO)N1C[C@H](C)[C@H](CN(C)CC2CCCCC2)Oc2ccc(NC(=O)Nc3ccc(C(F)(F)F)cc3)cc2C1=O	15.2 µM
C[C@@H]1CN([C@H](C)CO)S(=O)(=O)c2ccc(C#Cc3ccccc3)cc2O[C@H]1CN(C)C	28.4 µM
O=C(C[C@H]1CC[C@H]2[C@@H](COC[C@H](O)CN2C(=O)Nc2cc(Cl)cc(Cl)c2)O1)N1CCCCC1	3.29 µM
CC(=O)N[C@H]1CC[C@H](CCNC(=O)Nc2ccc(C(F)(F)F)cc2)O[C@@H]1CO	9.65 µM
CNC(=O)C[C@@H]1CC[C@H]2[C@@H](COC[C@H](O)CN2C(=O)Nc2ccc(Cl)c(Cl)c2)O1	7.63 µM
O=C(C[C@H]1CC[C@H]2[C@@H](COC[C@H](O)CN2C(=O)Nc2ccc(C(F)(F)F)cc2)O1)NCC1CCCCC1	2.45 µM

SMILES	AC50
CO[C@H](CN(C)C(=O)C1CC1)[C@@H](C)CN(C(=O)Nc1ccc(C(F)(F)F)cc1)[C@H](C)CO	3.59 µM
O=C(C[C@@H]1CC[C@@H]2[C@H](COC[C@H](O)CN2C(=O)Nc2ccc(C(F)(F)F)cc2)O1)NCC1CCCCC1	1.09 µM
O=C(NCC[C@H]1CC[C@H](NC(=O)c2cccnc2)[C@@H](CO)O1)Nc1ccc(C(F)(F)F)cc1	1.79 µM
C[C@H](CO)N1C[C@H](C)[C@H](CN(C)CC2CCCCC2)OCCCC[C@H](C)Oc2ccc(NC(=O)Nc3cccc4ccccc34)cc2C1=O	29 µM
CO[C@H]1CN(C)C(=O)c2cc(NC(C)=O)ccc2OC[C@@H](C)N(CCc2ccccc2)C[C@H]1C	> 60 µM (inactive)
CO[C@H]1CN(C)C(=O)c2ccc(NC(=O)Nc3cc(Cl)cc(Cl)c3)cc2OC[C@@H](C)NC[C@H]1C	15.1 µM
C[C@@H]1CN([C@@H](C)CO)C(=O)c2cc(NC(=O)C3CC3)ccc2O[C@@H]1CN(C)C(=O)Nc1ccc(C(F)(F)F)cc1	8.92 µM
COc1ccc(-c2ccc([C@H]3[C@@H](C#N)N(C(=O)C4CCC4)[C@H]3CO)cc2)cc1	> 70 µM (inactive)
CC(=O)N[C@H]1CC[C@H](CCNC(=O)Nc2ccc(C(F)(F)F)cc2)O[C@H]1CO	4.52 µM
O=C(C[C@H]1CC[C@@H]2[C@H](COC[C@@H](O)CN2C(=O)Nc2ccc(Cl)c(Cl)c2)O1)NCc1ccc(Cl)cc1	3.67 µM
O=C(C[C@@H]1CC[C@H]2[C@@H](COC[C@@H](O)CN2C(=O)Nc2ccc(Cl)c(Cl)c2)O1)NCc1ccccc1	1.6 µM
O=C(C[C@@H]1CC[C@H]2[C@@H](COC[C@H](O)CN2C(=O)Nc2cc(Cl)cc(Cl)c2)O1)N1CCOCC1	17.6 µM
CO[C@@H](CN(C)Cc1cc(F)ccc1F)[C@H](C)CN(C(=O)Nc1ccc(C(F)(F)F)cc1)[C@@H](C)CO	3.71 µM
COc1ccccc1S(=O)(=O)N[C@@H]1C=C[C@@H](CC(=O)N2CCCCC2)O[C@H]1CO	> 60 µM (inactive)
CO[C@@H]1CN(C)C(=O)c2cc(NC(=O)c3cc(C)on3)ccc2OC[C@H](C)N(C(C)=O)C[C@@H]1C	> 60 µM (inactive)
CO[C@@H](CN(C)Cc1cc(F)ccc1F)[C@@H](C)CN(C(=O)Nc1ccc(C(F)(F)F)cc1)[C@H](C)CO	6.79 µM
CO[C@@H](CN(C)S(=O)(=O)c1cn(C)cn1)[C@@H](C)CN(C(=O)Nc1ccc(C(F)(F)F)cc1)[C@H](C)CO	16.5 µM
COc1cccc(C#Cc2cnc3c(c2)C(=O)N([C@H](C)CO)C[C@H](C)[C@@H](CN(C)C)O3)c1	33.2 µM
COc1ccc(CN(C)C[C@H]2OCCCC[C@H](C)Oc3ccc(NC(=O)Nc4ccc(C(F)(F)F)cc4)cc3C(=O)N([C@@H](C)CO)C[C@@H]2C)cc1	16.6 µM
C[C@@H]1CCCCO[C@H](CN(C)CC2CC2)[C@H](C)CN([C@@H](C)CO)C(=O)c2cc(NC(=O)Nc3ccc(C(F)(F)F)cc3)ccc2O1	16 µM
CO[C@@H](CN(C)C(=O)C1CCOCC1)[C@@H](C)CN(C(=O)Nc1ccc(C(F)(F)F)cc1)[C@@H](C)CO	3.66 µM
C[C@@H]1CN([C@@H](C)CO)C(=O)c2cccc(NC(=O)Nc3ccc(C(F)(F)F)cc3)c2O[C@@H]1CN(C)CC1CCCCC1	3.63 µM
CNC(=O)C[C@@H]1CC[C@H]2[C@@H](COC[C@@H](O)CN2C(=O)Nc2ccc(Cl)c(Cl)c2)O1	11.9 µM
